Our source for the IC50 values is publication PMC9330537, “DCLK1 promotes colorectal cancer stemness and aggressiveness via the XRCC5/COX2 axis” (Theranostics, 2022).

This assay concerns the target T1, DCLK1 (Doublecortin-like kinase 1) (Homo sapiens, UniProt O15075).
T1 sequence (O15075 1-740): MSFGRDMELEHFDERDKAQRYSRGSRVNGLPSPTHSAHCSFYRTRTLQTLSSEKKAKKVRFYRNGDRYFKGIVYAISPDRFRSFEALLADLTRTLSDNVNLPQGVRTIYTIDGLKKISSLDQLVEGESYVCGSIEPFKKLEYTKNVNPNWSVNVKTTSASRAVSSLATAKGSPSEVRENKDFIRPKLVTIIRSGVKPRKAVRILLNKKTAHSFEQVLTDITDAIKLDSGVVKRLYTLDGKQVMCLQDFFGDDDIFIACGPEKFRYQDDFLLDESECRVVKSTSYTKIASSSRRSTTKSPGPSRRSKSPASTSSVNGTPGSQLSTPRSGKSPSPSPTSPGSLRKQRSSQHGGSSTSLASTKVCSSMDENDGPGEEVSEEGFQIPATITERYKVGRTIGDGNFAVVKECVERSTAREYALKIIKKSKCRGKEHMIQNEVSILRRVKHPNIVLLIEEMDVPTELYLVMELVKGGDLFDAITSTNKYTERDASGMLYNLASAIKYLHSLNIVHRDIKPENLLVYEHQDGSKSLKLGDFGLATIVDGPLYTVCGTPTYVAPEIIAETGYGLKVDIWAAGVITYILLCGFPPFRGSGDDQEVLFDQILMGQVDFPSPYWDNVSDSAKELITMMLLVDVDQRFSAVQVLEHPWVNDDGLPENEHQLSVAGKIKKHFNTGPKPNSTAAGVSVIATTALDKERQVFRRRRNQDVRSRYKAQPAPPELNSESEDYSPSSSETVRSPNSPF
As to the kind of experiment: DCLK1 kinase activity assay, dose response. It is filed as biochemical.

Turning to `COc1cc(N2CCN(C)CC2)ccc1Nc1ncc2c(n1)N(C)c1ccccc1C(=O)N2CC(F)(F)F` [DCLK1-IN-1], the IC50 is 143 nM.

As a reminder, the IC50 is the point on the concentration scale where inhibition reaches its midpoint. Read a high IC50 as weaker potency.
